Structures can show the parent of a compound that is named as a salt.
Assays:
[1] = test system: Klebsiella pneumoniae Weingarten 14 (Adhäsion an menschlichen Lungen-Epithelzellen ATCC, CCL5, L-132); assay: Direct effect in vitro: adhesion of 14C-labelled bacteria to an epithelial cell monolayer; assay type: cell-based; settings: L132, 3 h, pH 5, read-out: weniger Keime auf den Epithelzellen im Vergleich zur Kontrolle
Source text: • a. Der Titer der lebenden Zellen, z.B. von menschlichen Lungen-Epithelzellen wie ATCC, CCL5, L-132, - zu denen nachgewiesenerweise die Verbindungen der obigen allgemeinen Formel I eine sehr hohe Affinität aufweisen, die mit der zum intakten Organ vergleichbar ist - wird mittels Vitalfärbung mit Trypan blue und Auszählung in einer Fuchs-Rosenthal-Zählkammer bestimmt und durch Verdünnung mit Kulturmedium, z.B. Minimum Essential Medium plus 10 % fötales Kälberserum plus 0,1 % Kanamycin, auf 7 x 10⁴ Zellen/ml eingestellt. Je 3 ml dieser Suspension werden in Glasszintillationsfläschchen gefüllt, die durch eine übliche Behandlung für die Anheftung der Epithelzellen auf die Glasoberfläche vorbereitet wurden. Die Inkubation bis zur Ausbildung eines geschlossenen Monolayers erfolgt über 3 Tage bei 37°C und 3 % CO₂. Ein Monolayer entspricht 5 x 10⁶ Zellen pro Szintillationsfläschchen. • b. Die Bakterien, z.B. Klebsiella pneumoniae Weingarten 14, werden in zwei Passagen von je 24 Stunden bei 37° C in Brain Heart Infusion Broth (BHJ) bis zur logarithmischen Wachstumsphase gezüchtet. Während der 2. Passage erfolgt die radioaktive Markierung durch die Zugabe von 1,2-¹⁴C-Azetat zum Nährmedium. Danach wird die Kultur zur Entfernung nichtinkorporierter Radioaktivität zweimal mit PBS (Phosphate buffered saline) gewaschen. […]

[2] = test system: Klebsiella pneumoniae Weingarten 14 (Adhäsion an menschlichen Lungen-Epithelzellen ATCC, CCL5, L-132); assay: Indirect effect ex vivo: bacterial adhesion to epithelial cells after incubation with lung lavage fractions from treated rats; assay type: cell-based; settings: rats 25 mg/kg p.o. over 5 days, vs Tylose control animals
Source text: • a. Der Titer der lebenden Zellen, z.B. von menschlichen Lungen-Epithelzellen wie ATCC, CCL5, L-132, - zu denen nachgewiesenerweise die Verbindungen der obigen allgemeinen Formel I eine sehr hohe Affinität aufweisen, die mit der zum intakten Organ vergleichbar ist - wird mittels Vitalfärbung mit Trypan blue und Auszählung in einer Fuchs-Rosenthal-Zählkammer bestimmt und durch Verdünnung mit Kulturmedium, z.B. Minimum Essential Medium plus 10 % fötales Kälberserum plus 0,1 % Kanamycin, auf 7 x 10⁴ Zellen/ml eingestellt. Je 3 ml dieser Suspension werden in Glasszintillationsfläschchen gefüllt, die durch eine übliche Behandlung für die Anheftung der Epithelzellen auf die Glasoberfläche vorbereitet wurden. Die Inkubation bis zur Ausbildung eines geschlossenen Monolayers erfolgt über 3 Tage bei 37°C und 3 % CO₂. Ein Monolayer entspricht 5 x 10⁶ Zellen pro Szintillationsfläschchen. • b. Die Bakterien, z.B. Klebsiella pneumoniae Weingarten 14, werden in zwei Passagen von je 24 Stunden bei 37° C in Brain Heart Infusion Broth (BHJ) bis zur logarithmischen Wachstumsphase gezüchtet. Während der 2. Passage erfolgt die radioaktive Markierung durch die Zugabe von 1,2-¹⁴C-Azetat zum Nährmedium. Danach wird die Kultur zur Entfernung nichtinkorporierter Radioaktivität zweimal mit PBS (Phosphate buffered saline) gewaschen. Mit PBS pH 5,5 wird die Kultur im Photometer auf eine Transmission von 35 % eingestellt, was durch Ermittlung der Lebendkeimzahl einem Titer von 5 x 10⁸ Bakterien/ml entspricht. • c. Die Bakterien-Kultur wird abzentrifugiert, PBS abgenommen und durch ein gleiches Volumen Benzylamin-Lösung in PBS pH 5,5 ersetzt. Für den Kontrollwert wird statt der Benzylamin-Lösung PBS pH 5,5 verwendet. Das Nährmedium der Zellen wird abgenommen, der Monolayer (= 5 x 10⁶ Zellen) wird zweimal mit PBS pH 5,5 gespült und mit 1 ml Bakterien-Benzylamin-Lösung (= 5 x 10⁸ Bakterien) überschichtet. Die Inkubation erfolgt 3 Stunden bei 37° C. Danach wird die Bakterien-Benzylamin-Lösung abgenommen und der Monolayer zur Entfernung nicht-adhärenter Bakterien zweimal mit PBS pH 5,5 gespült. Nach Zugabe von Instagel wird die Radioaktivität der gebundenen Bakterien im Szintillationszähler gemessen. • d. Ergebnis: Mit der Verbindung A (50 |g/ml) wurden im Vergleich zur Kontrolle 15 % weniger Keime auf den Epithelzellen nachgewiesen, mit der Verbindung B (50 |g/ml) 20 %.
• a. Die Kultur der Epithelzellen erfolgt wie oben beschrieben. • b. Die Kultur der Bakterien erfolgt wie oben beschrieben. • c. Männliche SPF-Ratten (Chbb:THOM) werden über 5 Tage p.o. mit 25 mg Benzylamin pro kg Körpergewicht bzw. mit Tylose (Kontrolle) behandelt. Durch Bronchoalveolar-Lavage mit isotoner Harnstofflösung wird das Lungenwaschwasser gewonnen und gepoolt. 100 ml davon werden mittels präparativer Isoelektrofokussierung in 30 proteinhaltige Gelfraktionen aufgetrennt. Nach Bestimmung des isoelektrischen Punktes der einzelnen Fraktionen mit einer Oberflächen-Elektrode werden die Proteine mit 3 ml PBS pH 5,5 pro Fraktion vom Gel eluiert. Die 30 Fraktionen werden auf pH 5,5 eingestellt. • d. Die Bakterienkultur wird abzentrifugiert, PBS abgenommen und durch ein gleiches Volumen Lungenwaschwasserfraktion ersetzt. Für den Kontrollwert wird statt der Lungenwaschwasserfraktionen PBS pH 5,5 und isotone Harnstofflösung verwendet. Nach einer Inkubation von 2 Stunden bei 37° C wird die Bakterienkultur erneut abzentrifugiert, Lungenwaschwasserfraktionen bzw. PBS bzw. Harnstoff abgenommen und durch ein gleiches Volumen PBS pH 5,5 ersetzt. Das Nährmedium der Zellen wird abgenommen, der Monolayer (= 5 x 10⁶ Zellen) wird zweimal mit PBS pH 5,5 gespült und mit 1 ml Bakteriensuspension (= 5 x 10⁸ Bakterien) überschichtet. Die Inkubation erfolgt 2 Stunden bei 37° C Danach wird die Bakteriensuspension abgenommen und der Monolayer zur Entfernung nicht-adhärenter Bakterien zweimal mit PBS pH 5,5 gespült. Nach Zugabe von Instagel wird die Radioaktivität der gebundenen Bakterien im Szintillationszähler gemessen. • e. […]

[3] = test system: Klebsiella pneumoniae Weingarten 14; assay: In vivo lung infection: bacterial count in lung homogenate; settings: relative to Tylose control = 100; treated 8-10 h before, 15 min before and 4-5 h after infection, preferably i.m. 20-40 mg/kg; lungs preferably 10 h after infection
Experimental: • a. Die Kultur der Bakterien erfolgt wie oben beschrieben, allerdings ohne radioaktive Markierung. • b. Weibliche Albino-Wistar Ratten oder weibliche SPF-Mäuse (Chbb:NMRI) werden i.p., i.v., i.m., p.o., vorzugsweise i.m. 8-10 Stunden vor, 15 Minuten vor und 4-5 Stunden nach der Infektion mit 2-200 mg, vorzugsweise 20-40 mg Benzylamin pro kg Körpergewicht bzw. Tylose (Kontrolle) behandelt. Die Bakteriensuspension (5 x 10⁸-10⁻⁹Bakterien/ml physiologischer Kochsalzlösung) wird in einer Vernebelungskammer mit 0,35 ml/ Minute über 10 Minuten vernebelt. Alternativ werden 10⁶ Keime in 0,05 ml physiologischer Kochsalzlösung i.n. in den Nasengang unter einer Inhalationsnarkose, z.B. mit Chloroform, appliziert. Jeweils ein Kollektiv von Tieren wird 1-10, vorzugsweise 10 Stunden nach der Infektion seziert, die Lungen steril entnommen und die Keime im Lungenhomogenat quantitativ durch Anzüchtung auf McConkey-Agar ermittelt. Die Bakterienkonzentration wird in Keimzahl/g Lunge bestimmt.

[4] = Acute oral toxicity (LD50); settings: mouse, in vivo, Maus, p.o., read-out: LD₅₀
Source text: Die Verbindungen der obigen allgemeinen Formel I und deren physiologisch verträgliche Säureadditionssalze sind untoxisch und somit gut verträglich. So weist beispielsweise an der Maus • N-Methyl-N-(2-amino-3,5-dibrom-benzyl)-cyclohexylaminhydrochlorid eine LD₅₀ von >10 g/kg p.o., • N-(2-Amino-3,5-dibrom-benzyl)-trans-4-hydroxy-cyclohexylaminhydrochlorid eine von 2,72 g/kg p.o. und • die übrigen Verbindungen eine von >1 g/kg p.o. auf.

Row | SMILES | inhibition at 50 µg/mL [1] | % Hemmung der Adhäsivität ([2]; Isoelektrischer Punkt der Lungenwaschwasserfraktion 4,0) | % Hemmung der Adhäsivität ([2]; Isoelektrischer Punkt der Lungenwaschwasserfraktion 4,4) | % Hemmung der Adhäsivität ([2]; Isoelektrischer Punkt der Lungenwaschwasserfraktion 4,9) | % Hemmung der Adhäsivität ([2]; Isoelektrischer Punkt der Lungenwaschwasserfraktion 5,2) | % Hemmung der Adhäsivität ([2]; Isoelektrischer Punkt der Lungenwaschwasserfraktion 5,8) | % Hemmung der Adhäsivität ([2]; Isoelektrischer Punkt der Lungenwaschwasserfraktion 6,7) | % Hemmung der Adhäsivität ([2]; Isoelektrischer Punkt der Lungenwaschwasserfraktion 7,6) | % Hemmung der Adhäsivität ([2]; Isoelektrischer Punkt der Lungenwaschwasserfraktion 8,6) | % Keimzahl/g Lunge [3] | LD50 [4]
1 | Nc1c(Br)cc(Br)cc1CN[C@H]1CC[C@H](O)CC1 [Verbindung B, N-(2-Amino-3,5-dibrom-benzyl)-trans-4-hydroxy-cyclohexylamin-hydrochlorid] | 20% | 73% | 65% | 65% | 61% | 39% | 67% | 79% | 72% | 31% | 2720 mg/kg
2 | CN(Cc1cc(Br)cc(Br)c1N)C1CCCCC1 [Verbindung A, N-Methyl-N-(2-amino-3,5-dibrom-benzyl)-cyclohexylaminhydrochlorid] | 15% |  |  |  |  |  |  |  |  | 49% | > 10000 mg/kg

Reference: EP0138020B1, “Anti-adhesive prophylactica and medicines containing a secretolytically active benzylamine derivative” (priority 1983, dated 1985)
